[ ]: non-standard residue; d: D form. Cha = N[C@@H](CC1CCCCC1)C(=O)O
How the values were obtained:
[1] = system: HUVEC cells; assay: LIVE/DEAD staining viability of HUVEC cells cultured in peptide hydrogels; format: cell-based, Human; settings: cultured within hydrogel; 24 h, 4 days and 7 days; versus Matrigel
Procedure: Viability of HUVEC cells were evaluated by using LIVE/DEAD® staining at different time points in order to assess the compatibility of peptide scaffolds with cells. In one embodiment, the viability of HUVEC cells was determined after 24 h, 4 days and 7 days of culturing within peptide scaffolds.
In FIG. 3, for living cells were stained in green by calcein AM, while dead cells were stained in red by ethidium homodimer (EthD-1).
HUVEC cells were seeded and treated with peptides according to the protocol described above. After 24 h of incubation, the media was removed and replaced with DPBS solution containing approximately […] calcein AM and […] ethidium homodimer-1 (LIVE/DEAD® Viability/Cytotoxicity Kit, Life Technologies®) and incubated for 30 min in dark. Before imaging, the staining solution was removed and fresh DPBS was added. Stained cells were imaged with ZEISS® fluorescent microscope.
HUVEC cells were encapsulated in peptide hydrogels in 96 well tissue culture plates. Peptide solution was added to the plate at 40 μL per well. HUVEC cells suspended in 2×PBS were added to each well at 40,000 cells/well and gently mixed. The final concentration of the peptide hydrogel was 1× after the addition of 2×PBS containing cells. […] At pre-determined time points, the 3D cell viability assay, live/dead assay and florescence staining were performed.

[2] = system: HUVECs; assay: Cytoskeletal (actin) staining with rhodamine-phalloidin; format: cell-based, Human; settings: 24 h of culture
Procedure: In one embodiment, HUVECs grown in peptide scaffolds maintain their normal morphology and functionality. […] In the present disclosure, the cytoskeleton organization of HUVECs grown in the nanofibers scaffolds was visualized by staining the actin of cells with rhodamine-phalloidin. Cell morphology and the organization of actin structures of HUVECs grown in different scaffolds were compared and shown in FIG. 7.
(§1) Immunostaining was performed after 24 h of culture. In brief, the cells were fixed with 4% paraformaldehyde solution for 30 minutes and incubated in a cold cytoskeleton buffer (3 mM MgCl2, 300 mM sucrose and 0.5% Triton X-100 in PBS solution) for 10 minutes to permeabilize the cell membranes. The permeabilised cells were incubated in blocking buffer solution (5% FBS, 0.1% Tween-20, and 0.02% sodium azide in PBS) for 30 minutes at 37° C., followed by incubation with rhodamine-phalloidin (1:300) for 1 hour at 37° C. In case of endothelial cell markers, the sample incubated with Mouse anti-Endothelial Cell CD146 ( 1/500), Rabbit anti-VWF ( 1/5000) or Mouse anti-CD31 ( 1/50) for 1 hour and followed by secondary antibody. Furthermore, the cells were incubated in DAPI for 5 minutes at room temperature to counterstain the nucleus. Finally, the cells were observed and imaged using a laser scanning confocal microscope (Zeiss® LSM 710 Inverted Confocal Microscope, Germany).

[3] = system: HUVECs; assay: Endothelial cell marker expression (immunostaining); format: cell-based, Human; settings: similar to that in Matrigel
Procedure: The functionality of HUVECs in different scaffolds was determined by the expression of universal endothelial cell markers, including CD34, CD146 and Von-Willebrand factor (vWF).
as §1

[4] = system: HUVEC cells; assay: 3D cell proliferation assay (CellTiter-Glo, ATP production); format: cell-based, Human
Procedure: In one embodiment, HUVEC cells have higher proliferation cultured in peptides than in Matrigel®. Proliferation of cells cultured in both hydrogels and Matrigel® was evaluated by measuring the production of ATP after culturing for different period of time. The differences in ATP produced when cultured in different scaffolds was calculated.
HUVEC cells were encapsulated in peptide hydrogels in 96 well tissue culture plates. Peptide solution was added to the plate at 40 μL per well. HUVEC cells suspended in 2×PBS were added to each well at 40,000 cells/well and gently mixed. The final concentration of the peptide hydrogel was 1× after the addition of 2×PBS containing cells. Gelation occurred within 3-5 minutes and subsequently, the culture medium was added to the wells. At pre-determined time points, the 3D cell viability assay, live/dead assay and florescence staining were performed.
The CellTiter-Glo® luminescent 3D cell viability assay is a method to determine the number of viable cells in 3D hydrogels based on quantification of the ATP present, which signals the presence of metabolically active cells. After each time point, an equal amount of CellTiter-Glo® luminescent reagent was added to the same amount of media in each well. The contents were mixed for 5 minutes to digest the hydrogels and then incubated for 10 minutes. After incubation, the luminescence was recorded using a plate reader (PHERAstar® FS, Germany).

[5] = system: HUVECs; assay: In vitro angiogenesis study (tube-like structure formation); format: cell-based, Human; settings: for capillary-like structure formation by HUVECs: 2-6 hours of culture, no growth factors added to peptide scaffolds; for length of tube-like structure versus Matrigel: ImageJ, peptides without growth factor; for number of junctions of tube-like structure versus Matrigel: peptide hydrogels without growth factor, Matrigel with growth factors
Procedure: In one embodiment, HUVEC cells form tube-like structures when cultured in peptide hydrogels. In determining the effects of peptide scaffolds in facilitating the formation of the capillary-like structure formed by HUVEC cells, there was no addition of growth factors, after cells were plated on the surfaces of IIFK (SEQ ID NO. 1) and IIZK (SEQ ID NO. 2) scaffolds and Matrigel® (control). […] However, Matrigel® scaffold contains several growth factors that stimulate capillary-like structure formation rapidly. […] Tube length and diameter were evaluated using ImageJ software. […] In our study, no growth factors were added to the peptide scaffold.
Peptide hydrogel or Matrigel® were placed in 24 well plate, and human umbilical vein endothelial cells (HUVECs) 40,000 cells/well were added on top of peptide gel or Matrigel®. The amount of solutions in each well is about 200 μl. […] Cells were then investigated using inverted microscope, and images were analyzed by Image J using Angiogenesis Analyzer.

[6] = system: HUVECs; assay: Cell attachment of HUVECs on coverslips coated with hydrogels or Matrigel; format: cell-based, Human; settings: after 4 hours of culture
Procedure: Cell attachment was evaluated by seeding HUVECs on top of coverslips coated with Matrigel® (control) and different hydrogels. After incubation for 4 hours, efficient cell extension and adhesion in both control and hydrogels can be clearly seen, and also tube-like structure can be observed, as shown in FIG. 4. Furthermore, the number of cells attached was calculated for different scaffold used.

[7] = Peptide hydrogel preparation / gelation; format: physicochemical; settings: water, then PBS to 1x final
Source text: The solution-gel transition of both peptides (IIFK (SEQ ID NO. 1) and IIZK (SEQ ID NO. 2)) were induced by the addition of 1×PBS. Scanning electron microscopy (SEM) and transmission electron microscopy (TEM) examinations also confirmed the self-assembling nanofiber formations, as shown in FIGS. 1 and 2. The scale bars are 1 μm in FIGS. 1 and 200 nm in FIG. 2.
The tetramer self-assembling peptides Ac-IIZK (SEQ ID NO. 2)-NH2 (Ac-Ile-Val-Cha-Lys-NH2) and Ac-IIFK (SEQ ID NO. 1)-NH2 (Ac-Ile-Val-Phe-Lys-N H2) were manually synthesized by using solid phase peptide synthesis and purified to above 95% via HPLC. Amino acid and peptide content analysis were performed. Lyophilized peptide was dissolved in milliQ® water and vortexed to get a homogenous solution. Subsequently, 10×phosphate buffered saline at the final concentration of 1× was added to the peptide solution and vortexed shortly. Gelation occurred within few seconds in IIZK (SEQ ID NO. 2) at I mg/mL and IIFK (SEQ ID NO. 1) at 2 mg/mL peptide concentration.
HUVEC cells were encapsulated in peptide hydrogels in 96 well tissue culture plates. Peptide solution was added to the plate at 40 μL per well. HUVEC cells suspended in 2×PBS were added to each well at 40,000 cells/well and gently mixed. […] At pre-determined time points, the 3D cell viability assay, live/dead assay and florescence staining were performed.

Substance | viability of HUVEC cells (LIVE/DEAD staining) compared to Matrigel [1] | cell morphology and actin organization [2] | expression of endothelial cell markers CD34, CD146 and vWF [3] | ATP production by HUVEC cells versus Matrigel ([4]; after 24 h of culture) | ATP production by HUVEC cells versus Matrigel ([4]; after 7 day of culture) | capillary-like structure formation by HUVECs [5] | length of tube-like structure versus Matrigel [5] | number of junctions of tube-like structure versus Matrigel [5] | number of attached cells versus Matrigel [6] | peptide concentration at which gelation occurred within few seconds [7]
Ac-IV[Cha]K-NH2 [IIZK] | higher viability | fibroblastic morphology | well expressed | no significant difference | significantly higher | formed capillary-like structure networks | no significant difference | comparable | no significant difference | –
Ac-Ile-Val-Phe-Lys-N H2 [IIFK] | higher viability | fibroblastic morphology | well expressed | no significant difference | significantly higher | formed capillary-like structure networks | no significant difference | comparable | no significant difference | 2 mg/mL

From patent US20240252716A1, “SELF-ASSEMBLING NANOFIBROUS ULTRASHORT PEPTIDE HYDROGELS FOR VASCULAR TISSUE ENGINEERING” (KING ABDULLAH UNIVERSITY OF SCIENCE AND TECHNOLOGY, priority 2021, published 2024)
